Experimental findings from patent publication US5767116A, “Bicyclic aromatic compounds as therapeutic agents” (Knoll Atkiengesellschaft, priority 1993, dated 1998) are described below.

One assay addresses T1, α2-adrenoceptors (Rattus norvegicus, UniProt P22909).
T1 sequence (P22909 1-465): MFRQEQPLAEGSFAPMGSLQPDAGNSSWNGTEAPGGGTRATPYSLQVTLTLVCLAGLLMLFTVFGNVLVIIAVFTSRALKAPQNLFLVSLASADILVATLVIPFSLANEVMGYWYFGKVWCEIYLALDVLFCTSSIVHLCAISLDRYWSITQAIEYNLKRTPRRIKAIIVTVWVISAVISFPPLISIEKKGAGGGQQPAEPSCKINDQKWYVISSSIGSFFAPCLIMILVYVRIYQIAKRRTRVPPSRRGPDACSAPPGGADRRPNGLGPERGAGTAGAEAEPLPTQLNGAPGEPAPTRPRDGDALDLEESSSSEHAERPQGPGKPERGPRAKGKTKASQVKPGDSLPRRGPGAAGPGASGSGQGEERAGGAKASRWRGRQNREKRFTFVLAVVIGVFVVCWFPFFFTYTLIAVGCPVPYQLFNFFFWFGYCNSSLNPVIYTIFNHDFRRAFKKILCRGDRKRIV
The assay can be described thus: inhibition of tritiated ligand (tritiated idazoxan) binding to α2-adrenoceptors in vitro (frontal cortical tissue). Details: species or system rat (male Charles River CD). The conditions noted are these: rat frontal cortical tissue, tritiated idazoxan, 0° C., 75 minutes; > from highest concentration which displaced ≤50% of the ligand. On the procedure: Frontal cortical tissue from the brains of male Charles River CD rats weighing between 150-250 g were homogenised in ice-cold 0.25M sucrose (1:30 w/v) and centrifuged at 1,000 g at 4° C. for 12 minutes. The supernatant was stored on ice and the pellet was rehomogenised in 0.25M sucrose (1:15 w/v) and centrifuged at 850 g at 4° C. for 12 minutes. Combined supernatants were diluted with 5 mM Tris-HCl (pH 7.5) containing 0.5M ethylenediamine tetraacetic acid (EDTA) readjusted to pH 7.5 (at 25° C.) with 1M sodium hydroxide to 1:80 w/v, and centrifuged at 30,000 g at 4° C. for 10 minutes. The resulting pellet was resuspended in 5 mM Tris-HCl (pH 7.5) containing 5.68 mM L-ascorbic acid and 5 mM EDTA readjusted to pH 7.5 (at 25° C.) with 1M sodium hydroxide, and centrifuged at 30,000 g for 10 minutes. The final pellet was resuspended in 50 mM Tris-HCl (pH 7.5) containing 5.68 mM L-ascorbic acid and 5 mM EDTA (equivalent to 12.5 mg wet weight of tissue/ml) and used immediately in the binding assay. Aliquots (400 μl; equivalent to 5 mg wet weight of tissue/tube) of this suspension were added to tubes containing the ligand (50 μl; 1 nM) and distilled water (50 μl; total binding) or phentolamine (50 μl; 5 μM; non-specificbinding) or test compound (50 μl; at a single concentration of 10^-6 M or at 10 concentrations ranging from 10^-11 -10^-3 M). The ligand was tritiated idazoxan ((1,4-[6,7(n)-^3 H]benzodioxan-2-yl)-2-imidazoline hydrochloride) and the mixture was incubated at 0° C. for 75 minutes before the incubation was terminated by rapid filtration.
(§1) The filters were washed with ice-cold Tris-HCl buffer and dried. The filters were punched out into vials, scintillation fluid added and radioactivity determined by liquid scintillation counting. The percentage displacement of specific binding of the tritiated ligand was calculated for the single concentration (10^-6 M) of test compound. Displacement curves were then produced for those compounds which displaced ≥50% of specific binding of the tritiated ligand at 10^-6 M using a range of concentrations of the compound. […] The inhibition coefficient Ki was then calculated using the formula [formula] in which [ligand] is the concentration of the tritiated ligand used and KD is the equilibrium dissociation constant for the ligand.

The test system of the next assay is α1-adrenoceptors. The assay can be described thus: inhibition of tritiated ligand ([7-methoxy-^3 H]prazosin) binding to α1-adrenoceptors in vitro (whole cortical tissue). The arrangement: species or system rat (male Charles River CD). Particulars: rat whole cortical tissue. On the procedure: The supernatant was centrifuged at 30,000 g at 4° C. for 10 minutes. […] Aliquots (400 μl; equivalent to 5 mg wet weight of tissue/tube) of this suspension were added to tubes containing the ligand (50 μl; 0.1 nM) and distilled water (50 μl; total binding) or phentolamine (50 μl; 5 μM; non-specific binding) or test compound (50 μl; at a single concentration of 10^-6 M or at 10 concentrations ranging from 10^-11 -10^-3 M). The ligand was [7-methoxy-^3 H]prazosin and the mixture was incubated at 30° C. for 30 minutes before the incubation was terminated by rapid filtration.
as §1, with “The” for “The filters were washed with ice-cold Tris-HCl buffer and dried. The”

The next assay has as its target D2 dopamine receptors (Rattus norvegicus, UniProt P61169). The assay can be described thus: biochemical. Particulars: rat striatal tissue, tritiated (S)-sulpiride, 4° C., 40 minutes. The format is binding, rat (male Charles River CD).
The target in a further assay is T2, 5-HT1A receptors (Rattus norvegicus, UniProt P19327).
T2 sequence (P19327 1-422): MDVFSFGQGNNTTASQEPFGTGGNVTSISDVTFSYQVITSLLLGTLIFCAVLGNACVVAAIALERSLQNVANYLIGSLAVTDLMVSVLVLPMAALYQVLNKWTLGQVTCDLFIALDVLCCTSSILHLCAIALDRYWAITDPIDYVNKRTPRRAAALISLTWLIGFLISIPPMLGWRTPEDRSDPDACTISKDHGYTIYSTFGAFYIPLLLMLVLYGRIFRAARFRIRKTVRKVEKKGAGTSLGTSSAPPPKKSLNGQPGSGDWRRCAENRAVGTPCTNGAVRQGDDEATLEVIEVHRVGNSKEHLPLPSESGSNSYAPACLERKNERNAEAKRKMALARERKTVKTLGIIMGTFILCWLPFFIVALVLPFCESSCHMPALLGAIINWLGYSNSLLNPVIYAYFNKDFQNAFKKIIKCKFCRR
The assay can be described thus: biochemical. The format is binding, rat (male Charles River CD). Particulars: 10^-6 M, rat hippocampal tissue, [^3 H]8-OH-DPAT. On the procedure:
The pellet was rehomogenised in the same buffer, incubated at 37° C. for 10 minutes and centrifuged at 30,000 g at 4° C. for 10 minutes. […] Aliquots (400 μl; equivalent to 2.5 mg wet weight of tissue/tube) of this suspension were added to tubes containing the ligand (50 μl; 2 nM) and distilled water (50 μl; total binding) or 5-HT (50 μl; 10 µM; non-specific binding) or test compound (50 μl; at a single concentration of 10^-6 M or at 10 concentrations ranging from 10^-11 -10^-3 M). The ligand was [^3 H]8-hydroxy-2-(dipropylamino)tetralin([^3 H]8-OH-DPAT) and the mixture was incubated at 25° C. for 30 minutes before the incubation was terminated by rapid filtration.
as §1, with “The” for “The filters were washed with ice-cold Tris-HCl buffer and dried. The”

Chain of D2 dopamine receptors (P61169 whole entry): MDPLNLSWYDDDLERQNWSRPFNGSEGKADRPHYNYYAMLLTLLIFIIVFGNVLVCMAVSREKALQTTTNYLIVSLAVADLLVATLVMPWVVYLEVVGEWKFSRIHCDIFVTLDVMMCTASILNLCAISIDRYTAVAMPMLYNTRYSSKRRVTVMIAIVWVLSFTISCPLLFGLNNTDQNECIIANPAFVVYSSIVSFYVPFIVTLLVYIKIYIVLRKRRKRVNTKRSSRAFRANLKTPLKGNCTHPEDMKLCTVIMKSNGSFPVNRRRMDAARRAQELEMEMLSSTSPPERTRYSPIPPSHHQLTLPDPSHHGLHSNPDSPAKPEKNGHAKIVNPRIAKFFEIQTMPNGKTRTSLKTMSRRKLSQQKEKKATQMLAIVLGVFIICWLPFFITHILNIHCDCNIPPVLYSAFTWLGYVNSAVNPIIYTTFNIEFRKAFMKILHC

The term Ki denotes a measure of affinity in units of concentration, obtained from inhibition or displacement. A lower Ki goes with tighter binding. For the substance “N-(7-chloro-1,4-benzodioxan-2-ylmethyl)-1-[1-(2-methoxyphenyl) piperid-4-yl]methylamine and N-(6-chloro-1,4-benzodioxan-2-ylmethyl)-1-[1-(2-methoxy phenyl)-piperid-4-yl]methylamine 1.7 hydrochloride hydrate [Example 27]”, the Ki at α2-adrenoceptors was over 500 nM; at D2 dopamine receptors, 61.7 nM. Moreover, in the assay on α1-adrenoceptors (10^-6 M, 30 min, 1 µM), the “% displacement at 10^-6 M, α1” value was determined as 58%. The “% displacement at 10^-6 M, 5-HT1A” value on 5-HT1A receptors came to 94%.

As for “N-(7-chloro-1,4-benzodioxan-2-ylmethyl)-1-[1-(2-methoxyphenyl) piperid-4-yl]methylamine and N-(6-chloro-1,4-benzodioxan-2-ylmethyl)-1-[1-(2-methoxyphenyl) piperid-4-yl]methylamine hydrochloride hydrate [Example 26]”, the inhibitory constant (Ki) was over 500 nM at α2-adrenoceptors; over 500 nM on α1-adrenoceptors (30° C., 30 minutes, > from highest concentration which displaced ≤50% of the ligand); 82.5 nM on D2 dopamine receptors. In addition, the “% displacement at 10^-6 M, 5-HT1A” value at 5-HT1A receptors was found to be 88%.
